Test results from patent US5599548A, “Skin care compositions containing fatty acid amides and retinol or retinyl ester” (priority 1995, dated 1997).
Entries after “also recorded” stand apart in the source; their conditions may differ. Where two headings read alike, the source gives them in different places.

How the values were obtained:
Human keratinocytes = experiment: 3H-Thymidine incorporation (keratinocyte proliferation); type: cell-based; settings: for increase of thymidine incorporation/proliferation over ethanol control: retinol 2.5×10^-8 M; for activity at 0.025 µM: 2.5 × 10^-8 M
Procedure: (§1) Human keratinocytes, isolated from neonatal foreskin by trypsin treatment were grown in Dulbecco Modification Eagle (DME) Hams F12 (1:1) medium/10% fetal calf serum in the presence of irradiated 3T3 mouse fibroblasts for establishing dividing keratinocyte colonies. Cells were grown under the above condition until their second passage and kept frozen for future use. […] On day 7, when the cells were 80-90% confluent, they were trypsinized and plated in the serum-free medium for the various experiments.
The incorporation of […] by cultured keratinocytes was used as an assay of keratinocyte proliferation. Thymidine is one of four deoxynucleosides which are the monomeric units of DNA, the universal library of genetic information in the animal kingdom. Prior to cell division of a somatic cell such as a keratinocyte, the complete genome of the cell undergoing cell division is replicated. This involves large scale DNA synthesis by the cell and enables both daughter cells to receive identical copies of the genetic material. When ^3 H-thymidine is included in the culture media of keratinocytes which are synthesizing DNA in preparation for cell division then the labelled nucleoside is incorporated into the newly synthesized DNA. The extent of incorporation of ^3 H-thymidine into a population of cells is proportional to the rate of DNA synthesis by this population of cells and therefore an indication of their cellular proliferation.
Keratinocytes (that were cultured as described above) were plated in 24 well plates at a density of 40,000 cells per well in 1 ml media. After incubation for four days or until the cells were 60-70% confluent, the media was changed. Test compounds were added (in triplicate) to the wells 24 hours after the media change, and four hours later 1μCi^3 H-Thymidine in 50 μl media was added per well. Cells were incubated for a further 24 hours. Media was removed from the cells, 10% ice cold trichloroacetic acid (TCA) added and plates were incubated on ice for 30 minutes. Cells were washed five times with 5% TCA and allowed to dissolve in 500 μl 0.1M NaOH for at least one hour (usually overnight). The preparations were neutralized with 0.1M HCl; 50 μl of the cell preparation was used to determine total protein content. Disintegrations per minute (DPM) from ^3 H labelling of DNA was determined by liquid scintillation counting of […] of the cell preparation. Thymidine incorporation results were expressed as DPM/μg protein.

[1] = system: TGase I (keratinocyte transglutaminase level); experiment: Transglutaminase (TGase I) ELISA assay (keratinocyte differentiation); type: cell-based, human
Procedure: as §1
During the process of terminal differentiation in the epidermis, a 15 nm thick layer of protein, known as the cornified envelope (CE) is formed on the inner surface of the cell periphery. The CE is composed of numerous distinct proteins which have been cross-linked together by the formation of N^ε -(γ-glutamyl) lysine isodipeptide bonds catalyzed by the action of at least two different transglutaminases (TGases) expressed in the epidermis. TGase I is expressed in abundance in the differentiated layers of the epidermis, especially the granular layer, but is absent in the undifferentiated basal epidermis. Thus TGase I is a useful marker of epidermal keratinocyte differentiation with high TGase I levels indicating a more differentiated state. An ELISA based TGase I assay, using a TGase I antibody, was used to assess the state of differentiation of the cultured keratinocytes in the examples that follow.
Keratinocytes (cultured as described above) were plated in 96 well plates at a density of 3,000 cells per well in 200 μl media. After incubation for four days the media was changed to media containing test compounds (six replicates per test). The cells were cultured for a further 72 hours after which time the media was aspirated and the plates stored at -70° C. Plates were removed from the freezer, and the cells washed with PBS. 100 μl sterile water was added and the cells were freeze fractured by freezing at -70° C. then thawing. The cells were incubated for one hour at room temperature (R/T) with PBS/3% BSA (wash buffer, bovine serum albumin), then rinsed with a fresh aliquot of wash buffer. Cells were incubated with 50 μl of primary antibodies monoclonal anti-human transglutaminase (IgG) obtained from Amersham (mouse) diluted 1:300 in wash buffer for one hour, 37° C. then rinsed two times with wash buffer. Cells were then incubated with 50 μl of secondary antibody (Feb fragment, peroxidase conjugated anti-mouse IgG obtaining from Amersham) diluted 1:200 in wash buffer for one hour at 37° C., then rinsed two times with wash buffer. Cells were incubated with substrate solution (4 mg o-phenylene diamine and 3.3 μl 30% H2 O2 in 10 ml 0.1M citrate buffer pH 5.0) for five minutes, R/T, in darkness (under aluminum foil). The reaction was stopped by the addition of 50 μl 4N H2 SO4. The absorbance of samples was read at 492 nm in the plate reader. Out of the six replicates, four were treated with both antibodies, two were treated only with the secondary antibody (i.e., to determine background binding of enzyme conjugated Ab). TGase levels were determined by subtracting background from the readings from each treatment and determining mean ±s.d. for the replicates exposed to both Ab.

[2] = concentrations as in the respective Example
[3] = Table 3B, RA, RP 2.5 × 10^-7 M, linoleoyl-DEA 10^-6 M, alone or combined, n = 3
[4] = Table 4A, RA, retinol 2.5 × 10^-7 M, cocoyl-DEA 10^-7 M, alone or combined, n = 3
[5] = Table 4B, RA, retinol 2.5 × 10^-8 M, cocoyl-MEA 10^-8 M, alone or combined, n = 3
[6] = Table 5B, RA, retinol 2.5 × 10^-8 M, methyl linoleate 10^-8 M, alone or combined, n = 3

SMILES: CC1=C(/C=C/C(C)=C/C=C/C(C)=C/C(=O)O)C(C)(C)CCC1 [RA, retinoic acid]
- increase of thymidine incorporation/proliferation over ethanol control (Human keratinocytes; Example 2A, RA, linoleoyl-DEA 10^-9 M): 26%
- increase of thymidine incorporation/proliferation over ethanol control (Human keratinocytes; Example 4C, RA, palmitoyl-MEA 10^-6 M): 16%
- increase of thymidine incorporation/proliferation over ethanol control (Human keratinocytes; Example 4D, RA, linoleoyl-MEA 10^-9 M): 47%
- activity at 0.25 µM (Human keratinocytes; Homo sapiens, Keratinocyte, 24 h, Table 1A, first RA/ROH pair, 2.5 × 10^-7 M, 24 h, n = 3, read-out: thymidine incorporation, % control): 118%
- activity at 0.25 µM (Human keratinocytes; Homo sapiens, Keratinocyte, 24 h, Table 1A, second RA/ROH pair, 2.5 × 10^-7 M, 24 h, n = 3, read-out: thymidine incorporation, % control): 128%
- activity at 0.25 µM (Human keratinocytes; Homo sapiens, Keratinocyte, 24 h, Table 1A, third RA/ROH pair, 2.5 × 10^-7 M, 24 h, n = 3, read-out: thymidine incorporation, % control): 122%
- activity at 0.0025 µM (Human keratinocytes; Homo sapiens, Keratinocyte, 24 h, Table 3A, RA 2.5 × 10^-9 M, RP 2.5 × 10^-7 M, linoleoyl-DEA 10^-8 M, alone or combined, n = 3, read-out: thymidine incorporation, % control): 117%
- activity at 0.25 µM (Human keratinocytes; Homo sapiens, Keratinocyte, 24 h, Table 7A, 2.5 × 10^-7 M, 24 h, n = 9, read-out: mean Thymidine incorp/μg protein ± s.d): 113 ± 10.9%
- activity at 0.25 µM (Human keratinocytes; Homo sapiens, Keratinocyte, 24 h, Table 7A, 2.5 × 10^-7 M, 24 h, n = 9, read-out: thymidine incorporation, % control): 113%
- activity at 0.025 µM (Human keratinocytes; Homo sapiens, Keratinocyte, 24 h, Table 7A, 24 h, n = 9, read-out: mean Thymidine incorp/μg protein ± s.d): 125 ± 13.9%
- activity at 0.025 µM (Human keratinocytes; Homo sapiens, Keratinocyte, 24 h, Table 7A, 24 h, n = 9, read-out: thymidine incorporation, % control): 126%
- activity at 0.0025 µM (Human keratinocytes; Homo sapiens, Keratinocyte, 24 h, Table 7A, 2.5 × 10^-9 M, 24 h, n = 9, read-out: mean Thymidine incorp/μg protein ± s.d): 121 ± 12.8%
- activity at 0.0025 µM (Human keratinocytes; Homo sapiens, Keratinocyte, 24 h, Table 7A, 2.5 × 10^-9 M, 24 h, n = 9, read-out: thymidine incorporation, % control): 121%
- activation at 0.0025 µM (Human keratinocytes; Homo sapiens, Keratinocyte, read-out: increase of thymidine incorporation/proliferation over ethanol control): 17%
- mean Thymidine incorp./μg protein ± s.d (Human keratinocytes; Table 1A, first RA/ROH pair, 2.5 × 10^-7 M, 24 h, n = 3): 2475 ± 116 DPM/μg protein
- mean Thymidine incorp./μg protein ± s.d (Human keratinocytes; Table 1A, second RA/ROH pair, 2.5 × 10^-7 M, 24 h, n = 3): 2686 ± 72 DPM/μg protein
- mean Thymidine incorp./μg protein ± s.d (Human keratinocytes; Table 1A, third RA/ROH pair, 2.5 × 10^-7 M, 24 h, n = 3): 2556 ± 80 DPM/μg protein
- mean Thymidine incorp./μg protein ± s.d (Human keratinocytes; Table 2A, RA, ROH 2.5 × 10^-8 M, linoleoyl-DEA 10^-9 M, alone or combined, 24 h, normalized to ethanol control, n = 9): 1.255 ± 0.139
- mean Thymidine incorp./μg protein ± s.d (Human keratinocytes; Table 3A, RA 2.5 × 10^-9 M, RP 2.5 × 10^-7 M, linoleoyl-DEA 10^-8 M, alone or combined, n = 3): 1990 ± 61 DPM/μg protein
- mean Thymidine incorp./μg protein ± s.d (Human keratinocytes; Table 4C, RA, retinol 2.5 × 10^-8 M, palmitoyl-MEA 10^-6 M, alone or combined, control = 1.000, n = 3): 1.164 ± 0.113
- thymidine incorporation, % control (Human keratinocytes; Table 4C, RA, retinol 2.5 × 10^-8 M, palmitoyl-MEA 10^-6 M, alone or combined, n = 3, 1440 min): 116%
- thymidine incorporation, % control (Human keratinocytes; Table 4D, RA, ROH 2.5 × 10^-8 M, linoleoyl-MEA 10^-9 M, alone or combined, 24 h, n = 3): 147%
- mean Thymidine incorp./μg protein ± s.d (Human keratinocytes; Table 4D, RA, ROH 2.5 × 10^-8 M, linoleoyl-MEA 10^-9 M, alone or combined, 24 h, normalized to ethanol control, n = 3): 1.47 ± 0.36
- effect on keratinocyte proliferation, in words (Human keratinocytes; [2]): significantly increased keratinocyte proliferation; also recorded: increased thymidine incorporation
- activity at 0.25 µM ([1]; Homo sapiens, Keratinocyte, 72 h, Table 1B, 2.5 × 10^-7 M, 72 h, n = 3, read-out: Transglutaminase level, % control): 20%
- activity at 0.025 µM ([1]; Homo sapiens, Keratinocyte, 72 h, Table 1B, 2.5 × 10^-8 M, 72 h, n = 3, read-out: Transglutaminase level, % control): 62%
- activity at 0.0025 µM ([1]; Homo sapiens, Keratinocyte, 72 h, Table 1B, 2.5 × 10^-9 M, 72 h, n = 3, read-out: Transglutaminase level, % control): 84%
- activity at 1 µM ([1]; Homo sapiens, Keratinocyte, Table 5A, RA, retinol 2.5 × 10^-7 M, linoleic acid 10^-6 M, alone or combined, n = 3, read-out: TGase (TG1) level, % control): 0%
- activity at 0.25 µM ([1]; Homo sapiens, Keratinocyte, Table 8A, 2.5 × 10^-7 M, n = 3, read-out: TGase, % control): 34%
- activity at 0.025 µM ([1]; Homo sapiens, Keratinocyte, Table 8A, 2.5 × 10^-8 M, n = 3, read-out: TGase, % control): 64%
- activity at 0.0025 µM ([1]; Homo sapiens, Keratinocyte, Table 8A, 2.5 × 10^-9 M, n = 3, read-out: TGase, % control): 87%
- activity at 0.25 µM ([1]; Homo sapiens, Keratinocyte, Table 8B, 2.5 × 10^-7 M, n = 3, read-out: TGase, % control): 12%
- mean Transglutaminase ELISA level ± s.d ([1]; Table 1B, 2.5 × 10^-7 M, 72 h, n = 3): 0.088 ± 0.015
- mean Transglutaminase ELISA level ± s.d ([1]; Table 1B, 2.5 × 10^-8 M, 72 h, n = 3): 0.268 ± 0.068
- mean Transglutaminase ELISA level ± s.d ([1]; Table 1B, 2.5 × 10^-9 M, 72 h, n = 3): 0.360 ± 0.067
- TGase (TG1) level, % control ([1]; Table 2B, RA, ROH 2.5 × 10^-7 M, linoleoyl-DEA 10^-6 M, alone or combined, 72 h, n = 9): 28%
- mean TGase ± s.d ([1]; Table 2B, RA, ROH 2.5 × 10^-7 M, linoleoyl-DEA 10^-6 M, alone or combined, 72 h, normalized to ethanol control, n = 9): 0.283 ± 0.470
- TGase (TG1) level, % control [1, 3]: 33%
- mean TGase ± s.d [1, 3]: 0.073 ± 0.022
- TGase (TG1) level, % control [1, 4]: 33%
- mean TGase ± s.d [1, 4]: 0.058 ± 0.098
- TGase (TG1) level, % control [1, 5]: 29%
- mean TGase ± s.d [1, 5]: 0.036 ± 0.009
- mean TGase ± s.d ([1]; Table 5A, RA, retinol 2.5 × 10^-7 M, linoleic acid 10^-6 M, alone or combined, n = 3): -0.004 ± 0.103
- TGase (TG1) level, % control [1, 6]: 32%
- mean TGase ± s.d [1, 6]: 0.092 ± 0.030
- mean TGase level ± s.d ([1]; Table 6A (Effect on Keratinocyte TGase), RA, ROH 2.5 × 10^-7 M, formamide 10^-7 M, alone or combined, 72 h, n = 3): 0.137 ± 0.024
- TGase (TG1) level, % control ([1]; Table 6A, RA, ROH 2.5 × 10^-7 M, formamide 10^-7 M, alone or combined, 72 h, n = 3): 28%
- mean TGase level ± s.d ([1]; Table 6B (Effect on Keratinocyte TGase), RA, ROH 2.5 × 10^-7 M, acetamide 10^-7 M, alone or combined, 72 h, n = 3): 0.226 ± 0.069
- TGase (TG1) level, % control ([1]; Table 6B, RA, ROH 2.5 × 10^-7 M, acetamide 10^-7 M, alone or combined, 72 h, n = 3): 46%
- mean TGase level ± s.d ([1]; Table 6C (Effect on Keratinocyte TGase), RA, ROH 2.5 × 10^-7 M, pentanoyl-DEA 10^-7 M, alone or combined, 72 h, n = 3): 0.088 ± 0.015
- mean TGase ± s.d ([1]; Table 8A, 2.5 × 10^-7 M, n = 3): 0.073 ± 0.022
- mean TGase ± s.d ([1]; Table 8A, 2.5 × 10^-8 M, n = 3): 0.138 ± 0.034
- mean TGase ± s.d ([1]; Table 8A, 2.5 × 10^-9 M, n = 3): 0.190 ± 0.091
- mean TGase ± s.d ([1]; Table 8B, 2.5 × 10^-7 M, n = 3): 0.015 ± 0.025
- effect on keratinocyte TG1 levels / differentiation, in words [1, 2]: decreased keratinocyte differentiation; also recorded: repressed keratinocyte TG 1 levels completely; also recorded: significantly decreased keratinocyte TGase levels; also recorded: decreased transglutaminase I levels
